# From patent publication US12178830B2, “Compositions and methods for adoptive cell therapy for cancer” (MEMORIAL SLOAN KETTERING CANCER CENTER, priority 2017, dated 2024)
# Tests used:
# [1] = tested on: SET2 cells; experiment: SET2 viability with prodrug plus recombinant enzyme or enzyme-containing supernatant; assay type: cell-based; conditions: supernatant from CPG2-secreting HEK293t cells; control media did not
# Experimental: Recombinant CPG2 protein was initially synthesized, purified (FIGS. 18A and 18B), and incubated with increasing concentrations of prodrug in a glutamate release assay (FIG. 17C). Mass spectrometry was used to determine that the glutamate moiety was released from all of the glutamate prodrugs. The in vitro cytotoxicity of the prodrugs (FIG. 17B) were tested against the myeloid leukemia cell line SET2 using a CellTitre Glo® assay (Promega, Madison, WI).
# SET2 cells were exposed to increasing concentrations of AMS (square) or glut-AMS with media alone (− control, triangle) or supernatant from CPG2-secreting HEK293t cells (circle). Cell viability was measured by CellTitre-Glo® luminescence assay.
# Thus, antigen-dependent expansion of SEAKER T cells results in increased output of enzyme into the extracellular milieu.
# To determine to respective enzyme output of the Beta-lactamase constructs relative to the previous CPG2 constructs, a quantitative sandwich ELISA was used to determine the concentration (ng/mL) of purified recombinant CPG2, and a quantitative nitrocefin assay was used to determine the concentration (ng/mL) of purified recombinant Beta-lactamase (FIG. 25A). Cell viability was measured by CellTitre-Glo® luminescence in the presence of prodrug (glut-AMS or ceph-AMS) and varying concentrations of purified recombinant CPG2 or Beta-lactamase (FIG. 25B).
# [2] = tested on: primary T-cells; experiment: CellTitre Glo in vitro cytotoxicity, primary T cells; assay type: cell-based, human
# [3] = tested on: myeloid leukemia cell line SET2; experiment: CellTitre Glo in vitro cytotoxicity, SET2; assay type: cell-based
# [4] = mouse, in vivo
# [5] = tested on: SKOV-3 human ovarian cancer cell line; experiment: Cell viability, Skov-3; assay type: cell-based
# [6] = tested on: Nalm6; experiment: Cell viability, Nalm6; assay type: cell-based
# [7] = target: T1, recombinant CPG2 (Pseudomonas sp., UniProt P06621, N222Q/N264Q/N272Q); experiment: Glutamate release assay (Amplex Red) with recombinant CPG2; assay type: biochemical; conditions: high concentrations (~10 μM), 37° C.
# T1 construct: 6xHis (pET151 Directional TOPO leader) (N); made in house; host or cells: E. coli BL21 star
# Experimental: FIG. 4 provides exemplary data showing activation of P-AMS (see FIG. 2) by recombinant CPG2 expressed and purified from E. coli. (A) Human Jurkat T cells were incubated with or without P-AMS in the presence of increasing concentration of purified CPG2. Cell viability was measured at 48 hours by CellTitre-Glo luminescence. (B) Recombinant CPG2 was exposed to various concentrations of glutamated AMS prodrug. Following incubation at 37° C. (0.5, 1, 2, and 4 hr.), the reaction was combined with Amplex® Red (converts free glutamate to a fluorescent species) and fluorescent emission was analyzed using a fluorescence multiwell plate scanner.
# The CPG2-pET151 vector was transformed into BL21 star E. coli cells and induced with IPTG. Bacteria were homogenized in a French Press and purified by affinity chromatography over Ni++ beads using standard protocols. Imidazole was exchanged via PBS dialysis and protein was purified via desalting spin columns. The expressed and purified CPG2 was assayed to confirm that the active enzyme was a potent converter of glutamated prodrugs. […] Pro-AMS was activated by recombinant CPG2 in vitro. Human Jurkat T cells were incubated with or without P-AMS in the presence of increasing concentration of purified CPG2. Cell viability of the Jurkat cells was measured at 48 hours by CellTitre-Glo® luminescence. […]
# [8] = tested on: panel of cancer cell lines and primary cell lines; experiment: In vitro cytotoxicity of drug/prodrug pairs against a panel of cell lines; assay type: cell-based
# [9] = tested on: HEK293T cells expressing CPG2; experiment: HEK293T cells expressing CPG2 variants exposed to P-AMS; assay type: cell-based, human
# Experimental: (§1) The in vitro cytotoxicity of AMS (structure 1c) and its prodrug variant (structure 1a) was tested against a variety of cell lines using a CellTitre Glo® assay (Promega, Madison, WI). […] Moreover, co-treatment with the prodrug and supernatant from CPG2-transfected HEK293T cells (see Example 3) led to cytotoxicity approaching that of the free drug (50 nM), consistent with CPG2-mediated cleavage of the prodrug to release the active parent drug. […] In contrast, AMS prodrug 1a was not activated by HEK293T cells expressing CPG intracellularly, which likely attributed to poor cell-penetrance of the prodrug due to the free bis-anionic gluatamate moiety.
# Expression of CPG2 without a signal peptide (CPG2nosigp) was employed as a control. HEK293t cells stably transfected with CPG2 variants were exposed to P-AMS ([…]) for 48 hours and analyzed by bright field microscopy (FIG. 9A). Cells were exposed to varying concentrations of P-AMS and cell viability was analyzed at 48 hr post treatment (FIG. 9B).
# [10] = tested on: Raji; experiment: Cell viability, Raji; assay type: cell-based, human
# [11] = tested on: Jurkat (T cell); experiment: CellTitre Glo in vitro cytotoxicity, Jurkat; assay type: cell-based, human
# [12] = tested on: HEK293T (kidney); experiment: CellTitre Glo in vitro cytotoxicity, HEK293T; assay type: cell-based, human
# [13] = target: T2, endogenous glutamate carboxypeptidase expressed in human prostate cells (Homo sapiens, UniProt Q04609); experiment: Cell Titer-Glo viability of LNCap cells with AMS-glut prodrug (specificity for CPG2); assay type: cell-based
# T2 construct: the endogenous glutamate carboxypeptidase expressed in human prostate cells; endogenous in cells; host or cells: LNCap cells
# Source text: This prodrug/drug combination was chosen for further development of the SEAKER systems.
# [14] = tested on: human epithelial CACO-2 cells; experiment: Cell permeability in CACO-2 cells; assay type: in vitro ADME
# [15] = tested on: Jurkat T cells; experiment: Jurkat viability with prodrug plus supernatant from CPG2-secreting HEK293T cells; assay type: cell-based, human; conditions: increasing prodrug, 48 hours, supernatant from CPG2-secreting HEK293T cells
# Experimental: as §1
# Jurkat T cells were exposed to increasing concentrations of AMS (circle) or Pro-AMS with media alone (triangle) or supernatant from CPG2-secreting HEK293T cells (square). Cell viability was measured at 48 hours by CellTitre-Glo® luminescence assay.
# Jurkat T cells were exposed to increasing concentrations of ZD2767P with media alone (triangle) or supernatant from CPG2-secreting HEK293T cells (square). Cell viability was measured at 48 hours by CellTitre-Glo® luminescence assay.
structure (smiles),measurement,setting,value
"NS(=O)(=O)OC[C@H]1O[C@@H](n2cnc3c(NC(=O)N[C@@H](CCC(=O)O)C(=O)O)ncnc32)[C@H](O)[C@@H]1O [P-AMS, ((9-((2R,3R,4S,5R)-3,4-dihydroxy-5-((sulfamoyloxy)methyl)tetrahydrofuran-2-yl)-9H-purin-6-yl)carbamoyl)-L-glutamic acid]",SET2 cell viability with prodrug and CPG2 supernatant,[1],significant decrease in cell viability
same,IC50,"[2]; Homo sapiens, T-cell, read-out: IC50 (cell selectivity data)",> 3000 nM
same,Selective Index,"[2]; Human T cell, prodrug vs AMS",>13.2
same,IC50,"[3]; Homo sapiens, SET-2, read-out: IC50 (cell selectivity data)",> 3000 nM
same,Selective Index,"[3]; Set2, prodrug vs AMS",>87.2
same,toxicity,[4],non-toxic
same,IC50,"[5]; Homo sapiens, SK-OV-3, read-out: IC50 (cell selectivity data)",> 5000 nM
same,Selective Index,"[5]; Skov-3, prodrug vs AMS",>14.3
same,IC50,"[6]; Homo sapiens, NALM-6, read-out: IC50 (cell selectivity data)",> 3000 nM
same,Selective Index,"[6]; Nalm6, prodrug vs AMS",>81.3
same,time in which the majority of the prodrug is converted,[7],≤ 1 h
same,selective indices,[8]; all cell types tested,> 100
same,IC50,"[8]; prodrug alone, cell lines tested",> 1000 nM
same,SI selectivity index,"[8]; prodrug vs free drug, up to",> 56
same,activation by cells expressing CPG intracellularly,[9]; HEK293T cells expressing CPG intracellularly,not activated
same,cell death of HEK293T cells stably expressing secreted or transmembrane CPG2,"[9]; P-AMS, 48 hr, CPG2nosigp control did not",significant cell death
same,IC50,"[10]; Homo sapiens, read-out: IC50 (cell selectivity data)",> 3000 nM
same,Selective Index,[10]; prodrug vs AMS,>170.5
same,IC50,"[11]; Homo sapiens, Jurkat, read-out: IC50 (cell selectivity data)",> 1250 nM
same,Selective Index,"[11]; Jurkat (T cell), prodrug vs AMS",>162.3
same,Selective Index,"[12]; HEK293t, prodrug vs AMS",>7.5
same,IC50,"[12]; Homo sapiens, HEK-293T, read-out: IC50 (cell selectivity data)",> 5000 nM
same,stability to endogenous glutamate carboxypeptidase,[13],remained stable
same,cell permeability,[14],no cell permeability
same,cell viability with prodrug and CPG2 supernatant,[15],significant decrease in cell viability
